Data as given in ChEMBL document CHEMBL1201862, “PubChem BioAssay data set” (2004).
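Test compounds were applied to cells in 96-well plates for 48 hours at 5 doses. At the GI50, growth is halved.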 The source made the active and inactive calls. No stated cut-off is given here; in the data, active = GI50 up to about 1.1 µM and inactive = higher.

How the values were obtained:
Assay in all cases: NCI-60 cell line screen, 48 h
[1] = system: SNB-19
[2] = system: NCI/ADR-RES
[3] = system: HT-29
[4] = system: SR
[5] = system: CCRF-CEM
[6] = system: U-251
[7] = system: M14
[8] = system: COLO 205
[9] = system: OVCAR-3
[10] = system: UACC-257
[11] = system: Malme-3M
[12] = system: OVCAR-4
[13] = system: A498
[14] = system: SNB-75
[15] = system: LOX IMVI
[16] = system: 786-0
[17] = system: OVCAR-8
[18] = system: HL-60
[19] = system: K562
[20] = system: NCI-H522
[21] = system: EKVX
[22] = system: DU-145
[23] = system: UO-31
[24] = system: SK-MEL-28
[25] = system: CAKI-1
[26] = system: PC-3
[27] = system: MDA-N
[28] = system: RXF 393
[29] = system: UACC-62
[30] = system: A549
[31] = system: NCI-H23
[32] = system: HCC 2998
[33] = system: HOP-62
[34] = system: IGROV-1
[35] = system: MCF7
[36] = system: OVCAR-5
[37] = system: MOLT-4
[38] = system: KM12
[39] = system: HCT-116
[40] = system: ACHN
[41] = system: SW-620
[42] = system: BT-549
[43] = system: SF-295
[44] = system: MDA-MB-231
[45] = system: SK-MEL-5
[46] = system: SN12C
[47] = system: NCI-H226
[48] = system: SF-539
[49] = system: RPMI-8226
[50] = system: HOP-92
[51] = system: MDA-MB-435
[52] = system: SK-MEL-2
[53] = system: NCI-H460
[54] = system: SK-OV-3

Measured: GI50

CSc1nc2c(c(=O)[nH]1)N=C(c1ccc(Cl)cc1)CC(c1ccccc1)N2 (stereo unspecified)
inactive: [1] 15.2 µM | [2] 14.5 µM | [3] 17.3 µM | [4] 37.8 µM | [5] 17.1 µM | [6] 17.7 µM | [7] 16.3 µM | [8] 19.8 µM | [9] 15.2 µM | [10] 16.2 µM | [11] 19.5 µM | [12] 11.5 µM | [13] 30.2 µM | [14] 12.1 µM | [15] 18.7 µM | [16] 15.7 µM | [17] 16.5 µM | [18] 16.7 µM | [19] 22.2 µM | [20] 14.5 µM | [21] 18.3 µM | [22] 20.7 µM | [23] 13.9 µM | [24] 17.3 µM | [25] 20 µM | [26] 19 µM | [27] 17.6 µM | [28] 17.2 µM | [29] > 10 µM | [30] 13.6 µM | [31] 14.7 µM | [32] 15.5 µM | [33] 17.9 µM | [34] 15.5 µM | [35] 19.1 µM | [36] 18.1 µM | [37] 17.7 µM | [38] 16.4 µM | [39] 21.3 µM | [40] 15.6 µM | [41] 18.8 µM | [42] 19.7 µM | [43] 18.6 µM | [44] 16.6 µM | [45] 13.3 µM | [46] 16.4 µM | [47] 24.8 µM | [48] 19.2 µM | [49] 17.4 µM | [50] 18.4 µM | [51] 17.9 µM | [52] 14.1 µM

Cc1ccc2[nH]c3c(c2c1)CCC/C3=N/N=C(N)N
inactive: [1] 1.99 µM | [2] 1.66 µM | [3] 1.64 µM | [53] 1.4 µM | [4] 2.22 µM | [5] 2.29 µM | [6] 2.1 µM | [7] 1.57 µM | [8] 1.62 µM | [9] 2.64 µM | [10] 2.51 µM | [11] 2.11 µM | [12] 2.76 µM | [13] 7.14 µM | [14] 1.34 µM | [15] 1.84 µM | [16] 2.07 µM | [17] 1.91 µM | [18] 9.4 µM | [19] 2.08 µM | [20] 1.87 µM | [21] 1.92 µM | [22] 1.71 µM | [23] 1.95 µM | [24] 2.24 µM | [25] 1.39 µM | [54] 19.1 µM | [26] 2.64 µM | [27] 1.49 µM | [28] 2.15 µM | [29] 2.16 µM | [30] 1.89 µM | [31] 3.06 µM | [32] 1.7 µM | [33] 1.91 µM | [34] 1.62 µM | [35] 1.44 µM | [36] 2.09 µM | [37] 2.09 µM | [38] 1.63 µM | [39] 2.79 µM | [40] 1.89 µM | [41] 3.2 µM | [42] 14.5 µM | [43] 1.65 µM | [44] 1.39 µM | [45] 1.9 µM | [46] 1.58 µM | [47] 2.11 µM | [48] 1.62 µM | [49] 2.5 µM | [50] 2.33 µM | [51] 1.72 µM | [52] 1.69 µM
